“And” between values parts separate entries of the source, which are not always exact repeats. Equal entries are not always repeated.
What was measured:
[1] = target: Metabotropic glutamate receptor 5 (Homo sapiens, UniProt P41594)
[2] = target: Metabotropic glutamate receptor 5 (Rattus norvegicus, UniProt P31424)
Chain of Metabotropic glutamate receptor 5 (Rattus norvegicus, UniProt P31424) (P31424 whole entry): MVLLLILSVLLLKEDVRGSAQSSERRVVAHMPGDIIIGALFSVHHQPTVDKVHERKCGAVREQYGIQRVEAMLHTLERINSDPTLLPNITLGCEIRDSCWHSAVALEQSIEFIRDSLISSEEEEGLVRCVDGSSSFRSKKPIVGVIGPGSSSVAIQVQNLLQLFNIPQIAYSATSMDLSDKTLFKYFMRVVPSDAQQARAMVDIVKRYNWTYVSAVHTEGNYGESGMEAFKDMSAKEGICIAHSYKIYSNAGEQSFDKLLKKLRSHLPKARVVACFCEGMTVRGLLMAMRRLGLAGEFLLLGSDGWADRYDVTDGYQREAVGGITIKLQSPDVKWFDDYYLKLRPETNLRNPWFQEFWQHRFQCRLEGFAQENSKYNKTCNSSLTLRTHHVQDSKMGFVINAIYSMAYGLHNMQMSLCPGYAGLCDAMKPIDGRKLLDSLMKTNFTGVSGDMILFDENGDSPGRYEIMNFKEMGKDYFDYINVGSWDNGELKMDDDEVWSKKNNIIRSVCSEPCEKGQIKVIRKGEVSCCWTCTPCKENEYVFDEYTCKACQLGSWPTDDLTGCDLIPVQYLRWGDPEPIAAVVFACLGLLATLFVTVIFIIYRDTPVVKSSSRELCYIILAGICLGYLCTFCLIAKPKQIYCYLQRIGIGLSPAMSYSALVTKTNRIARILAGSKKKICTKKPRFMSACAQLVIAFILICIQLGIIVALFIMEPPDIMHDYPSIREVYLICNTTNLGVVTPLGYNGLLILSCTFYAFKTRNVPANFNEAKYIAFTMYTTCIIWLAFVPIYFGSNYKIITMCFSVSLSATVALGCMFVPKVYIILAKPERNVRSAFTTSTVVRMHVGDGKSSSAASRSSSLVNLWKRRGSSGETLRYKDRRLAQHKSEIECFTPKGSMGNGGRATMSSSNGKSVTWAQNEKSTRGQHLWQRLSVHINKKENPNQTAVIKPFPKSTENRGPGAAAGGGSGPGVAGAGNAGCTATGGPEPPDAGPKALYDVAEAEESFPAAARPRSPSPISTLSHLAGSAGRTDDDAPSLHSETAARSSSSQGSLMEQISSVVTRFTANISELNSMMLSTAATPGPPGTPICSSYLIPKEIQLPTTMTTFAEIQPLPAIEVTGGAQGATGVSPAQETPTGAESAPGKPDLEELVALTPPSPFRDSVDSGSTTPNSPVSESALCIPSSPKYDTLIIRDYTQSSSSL

Chain of Metabotropic glutamate receptor 5 (Homo sapiens, UniProt P41594) (P41594 whole entry): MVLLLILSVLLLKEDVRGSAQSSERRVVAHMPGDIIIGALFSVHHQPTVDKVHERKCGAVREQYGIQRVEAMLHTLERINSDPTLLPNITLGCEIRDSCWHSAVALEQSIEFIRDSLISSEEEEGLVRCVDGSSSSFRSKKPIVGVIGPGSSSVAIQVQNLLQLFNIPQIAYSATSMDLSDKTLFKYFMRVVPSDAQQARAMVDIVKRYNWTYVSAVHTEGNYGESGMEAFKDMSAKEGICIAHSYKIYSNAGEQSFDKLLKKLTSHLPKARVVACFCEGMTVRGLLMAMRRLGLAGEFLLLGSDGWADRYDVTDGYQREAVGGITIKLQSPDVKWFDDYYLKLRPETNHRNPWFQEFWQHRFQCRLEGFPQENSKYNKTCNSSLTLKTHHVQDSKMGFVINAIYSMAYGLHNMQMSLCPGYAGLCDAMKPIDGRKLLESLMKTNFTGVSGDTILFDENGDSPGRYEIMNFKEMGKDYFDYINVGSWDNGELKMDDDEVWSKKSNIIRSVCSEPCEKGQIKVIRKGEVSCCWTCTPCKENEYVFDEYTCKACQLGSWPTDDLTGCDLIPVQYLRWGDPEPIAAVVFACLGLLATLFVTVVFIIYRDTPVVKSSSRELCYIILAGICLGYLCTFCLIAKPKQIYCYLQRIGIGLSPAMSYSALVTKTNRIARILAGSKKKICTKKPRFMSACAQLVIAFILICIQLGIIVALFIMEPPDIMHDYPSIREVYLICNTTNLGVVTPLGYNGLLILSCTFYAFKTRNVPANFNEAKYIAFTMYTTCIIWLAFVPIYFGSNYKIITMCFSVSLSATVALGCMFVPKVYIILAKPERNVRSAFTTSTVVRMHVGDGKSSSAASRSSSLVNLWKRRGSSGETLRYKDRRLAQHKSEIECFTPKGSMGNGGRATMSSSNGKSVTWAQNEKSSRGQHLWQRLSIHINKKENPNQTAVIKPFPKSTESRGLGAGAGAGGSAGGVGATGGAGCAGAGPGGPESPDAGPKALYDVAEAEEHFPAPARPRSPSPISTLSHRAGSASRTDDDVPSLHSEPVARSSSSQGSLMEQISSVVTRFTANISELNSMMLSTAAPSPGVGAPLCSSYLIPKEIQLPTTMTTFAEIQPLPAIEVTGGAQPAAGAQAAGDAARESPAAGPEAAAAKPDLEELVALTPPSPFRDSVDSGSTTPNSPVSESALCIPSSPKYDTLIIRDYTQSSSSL

Ki [1]	Ki [2]	SMILES
334 nM and 219 nM and 800 nM	423 nM and 243 nM	Cc1cccc(C=Cc2ccccc2)n1 [CAS_5311432]
357 nM and 328 nM and 1100 nM	486 nM and 346 nM	Cc1ccc(O)c(N=Nc2ccccc2)n1 [CAS_5218788]
40.8 nM and 53 nM and 58 nM	56.3 nM and 50.8 nM	Cn1cc(O)nc1NC(=O)Nc1cccc(Cl)c1 [NSC_216215]

SMILES	Ki [1]	Ki [2]
N[C@@H](Cn1oc(=O)[nH]c1=O)C(=O)O [NSC_40539]	> 10000 nM	> 10000 nM
